The source of these data is paper PMC4999848 (Toxins, 2016).

For one data set, the system named is human fecal bacteria. The following applies: 48 h incubation; cited from earlier work.
The next data set concerns liver explant. Put plainly: Deacetylation of 3/15ADON by human liver explants. It counts as in vitro ADME. Conditions: for % of deacetylation: hepatic explants, 6 h incubation, 100 μM; for Disappearance of 3/15ADON, specific activity: liver explant, 37 °C, substrate 100 μM; for Contribution to total deacetylation activity: Liver: percentage of sum of specific activities (Figure 8). The source says: Human tissue samples were obtained from patients undergoing surgery at the Hospital Nord of Marseille, unit of general and gastrointestinal surgery according to a collaborative “clinical transfer” project. The procedures were approved by the French ethic committee (CODECOH n° DC-2011-1319). Patients were from both genders (six men, three women), 31–74 years of age, all of European origin. All patients agree to use their tissues for research purposes. Samples were taken from macroscopically unaffected area as identified by the surgeon for intestinal samples or the pathologist for liver resections. Diagnoses leading to surgery were carcinoma for intestine or liver. After resection, the specimens were placed in ice-cold non-sterile Krebs solution implemented and transferred to the school of medicine on the same campus within 5 min, composition of the Krebs solution being previously described. The tissues were rinsed several times and maintained in oxygenated Krebs during 1 h for recovery before final dissection. Intestinal and hepatic resections were extensively washed and maintained in ice-cold culture media containing 1% streptomycin/penicillin solution and 50 μg/mL gentamycin. Tissues were cleaned from vascular vessels and conjunctive tissue using forceps under binocular microscope. In case of intestinal resection, muscularis and plexus were removed and only epithelial layer was kept. Intestinal and hepatic explants (wet weight of 20–30 mg) were then isolated from the cleaned resections using surgical punch (diameter of […]). […] Finally, the explants were washed 3 times with PBS^++ and transferred into 6-well plates before being used for deacetylation assay.
Stock solutions of DON, 3ADON and 15ADON at 2 mg/mL were prepared in absolute ethanol and stored at −20 °C. For deacetylation assay, 3- or 15ADON were incubated with cells, explants, bacteria or digestive enzymes after being diluted in PBS^++ at a final concentration of 100 μM. PBS^++ solution containing only ethanol (at 1.5% final concentration) or DON (at 100 μM) were used in parallel as negative and positive control, respectively. For cells and explants, deacetylation assay take place in 6-well plates, wells being filled with 2 mL of PBS^++ containing either ethanol, DON, 3- or 15ADON. For fecal bacteria and digestive enzyme assay, deacetylation assay was conducted in 2 mL Eppendorf tubes filled with 1.5 mL of PBS^++ containing either ethanol, DON, 3- or 15ADON. In vitro intestinal digestion by luminal enzymes was performed using porcine enzymes from Sigma-Aldrich and physiological conditions. Briefly, 3- or 15ADON were incubated with pepsin (at 1.6 mg/mL corresponding to 900 U/mL), trypsin (at 0.35 mg/mL corresponding to 6000 U/mL), pancreatic lipase (at 0.75 mg/mL corresponding to 18 U/mL) or pancreatin (at 1.23 mg/mL, lipase activity >10 U/mL, protease activity >100 U/mL, amylase activity >100 U/mL). Except for pepsin for which the digestion was conducted in HCl solution at 10 mM (pH 2.3), in vitro digestion was performed in PBS^++ (pH 7.4). Finally, deacetylation assay was also performed with commercial pooled S9 fractions from human liver, small intestine and kidneys as well as with pure recombinant human CES1 and CES2. S9 fractions and CES1/2 were used at 0.1 mg/mL and 5 μg/mL (corresponding to CES activity >20 U/mL), respectively. In all cases, aliquots of the reaction solution were collected immediately (i.e., “time zero” sample) or after the indicated time period at 37 °C and analyzed by HPLC. […] In all cases, the experiments were conducted in triplicate (n = 3).

On the set-up of data set [1]: method as in PMID 26343882. Conditions: chickens, after oral or i.v treatment; cited from earlier work.

Several values for one entry are separate records, joined by “and”; a condition that tells them apart may be missing. Equal entries are not always repeated.

For `CC(=O)O[C@@H]1C[C@]2(C)[C@@]3(CO)[C@H](O)C(=O)C(C)=C[C@H]3O[C@H]1[C@@]21CO1` [3ADON, 3-acetyldeoxynivalenol], the “% deacetylation” value in the data set on human fecal bacteria was 78% ± 30%. For the same compound, in the data set with liver explant, the “% of deacetylation” value is listed as 54.6% ± 15.4%; the “Disappearance of 3/15ADON, specific activity” value was 714 pmol/min/mg and 714 ± 198 pmol/min/mg; the “Contribution to total deacetylation activity: Liver” value came out at 56%.
On to `CC(=O)OC[C@]12[C@H](O)C(=O)C(C)=C[C@H]1O[C@@H]1[C@H](O)C[C@@]2(C)[C@]12CO2` [15ADON, 15-acetyldeoxynivalenol], for which the “Acetylated form in blood” value in data set [1] is “traces of 15ADON are present in the blood”. Moreover, in the data set with liver explant, the “% of deacetylation” value is on record as 24.6% ± 2.8%; the “Disappearance of 3/15ADON, specific activity” value was 330 pmol/min/mg and 330 ± 34 pmol/min/mg; the “Contribution to total deacetylation activity: Liver” value turned out to be 52%.
